US5545517A, “Selective metal ion detection using a photoluminescent indicator binding to a macromolecule-metal ion complex” (The United States of America as represented by the …, priority 1994, dated 1996)
pKd: −log10 of the molar value.

Key:
[1] = biological target: T1, carbonic anhydrase from bovine erythrocytes (Bos taurus, UniProt P00921); assay: binding of dansylamide to the zinc-containing carbonic anhydrase active site (fluorescence titration); conditions: binding site when zinc is present there
T1 construct: purchased Sigma C-7500; host or cells: bovine erythrocytes
T1 sequence (P00921 2-260 limits assumed): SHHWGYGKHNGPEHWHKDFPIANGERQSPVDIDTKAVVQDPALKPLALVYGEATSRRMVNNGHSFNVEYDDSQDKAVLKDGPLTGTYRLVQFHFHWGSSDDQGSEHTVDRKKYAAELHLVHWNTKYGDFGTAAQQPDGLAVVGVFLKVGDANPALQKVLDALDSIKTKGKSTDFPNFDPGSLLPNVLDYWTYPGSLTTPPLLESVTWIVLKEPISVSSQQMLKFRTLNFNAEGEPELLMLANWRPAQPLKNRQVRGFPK
Experimental: N,N-dimethyl-1-aminonaphthalene-8-sulfonamide (dansylamide) was from Aldrich, HEPES (Ultrapure grade) was from Baker, and other buffer salts were reagent grade or better. […] Following passage through the chelating resin, solutions were stored in clean polyethylene containers and pipetted using plastic pipets or metal-free pipet tips; fluorescence was measured in cuvettes made of synthetic fused silica. Carbonic anhydrase from bovine erythrocytes (Sigma C-7500) was stripped of its Zn atom by prolonged dialysis at 4 C. in 50 mM sodium acetate pH 5.4 buffer containing approximately 5 mM 2,6-dipicolinic acid (Aldrich). […]
Fluorescence emission spectra and emission intensities in cuvettes were measured on a modified ISS K2 fluorometer 60 (Champaign, Ill.) using a Liconix 4114NB laser 36 emitting approximately 5 mW multimode at 326n m for excitation. […] For some measurements through the fiber the off-axis paraboloid, objective lens, and fiber holder were mounted in the ISS fluorometer in place of the cuvette holder, as described elsewhere (Thompson, R. B., Lakowicz, J. R., Anal. Chem 65 853-57 (1993)); in these experiments the chopper and lock-in were not used and the DC output of the Hamamatsu R928 photodetector was directly quantitated on the instrument's digital voltmeter after amplification. […]

[2] = storage stability in solution; type: physicochemical; conditions: dilute solution, under these conditions (4° C.)
carbonic anhydrase = conditions: observed by Chen titrating the enzyme with dansylamide; cited from earlier work

## CN(C)c1cccc2c(S(N)(=O)=O)cccc12 [dansylamide]
[1]
  pKd: 6.62
[2]
  stability: not stable for more than a week
Carbonic anhydrase
  fluorescence enhancement: 15 fold
